This is an account of results in PMC3495596 (Journal of medicinal chemistry, 2012).

The target of experiment [1] is T1, thermolysin (Bacillus thermoproteolyticus, UniProt P00800). Format: biochemical. The following applies: free energy of binding corresponding to Ki.
The target in experiment [2] is T1, thermolysin. It counts as binding.

T1 sequence (P00800 233-548): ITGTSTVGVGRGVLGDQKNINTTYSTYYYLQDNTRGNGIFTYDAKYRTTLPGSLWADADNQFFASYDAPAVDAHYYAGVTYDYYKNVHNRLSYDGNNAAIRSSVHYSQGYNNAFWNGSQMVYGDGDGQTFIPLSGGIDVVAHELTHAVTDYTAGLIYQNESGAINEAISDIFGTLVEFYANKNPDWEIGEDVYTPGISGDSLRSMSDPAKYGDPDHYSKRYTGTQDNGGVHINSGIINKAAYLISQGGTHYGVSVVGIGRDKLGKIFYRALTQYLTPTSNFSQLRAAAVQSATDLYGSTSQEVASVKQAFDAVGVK

As for `CC(C)C[C@H](NP(=O)([O-])CNC(=O)OCc1ccccc1)C(=O)NCC(=O)[O-].[Li+].[Li+]` [Compound 8a, N-(N-(N-(benzyloxycarbonyl)-aminomethylphosphonyl)-L-leucinyl)-glycinate di-lithium], the ΔGKi in experiment [1] is -8.63 kcal/mol.
Consider `CC(C)C[C@H](NP(=O)([O-])CNC(=O)OCc1ccccc1)C(=O)N[C@@H](C)C(=O)[O-].[Li+].[Li+]` [Compound 8b, N-(N-(N-(benzyloxycarbonyl)-aminomethylphosphonyl)-L-leucinyl)-alaninate di-Lithium], for which the ΔGKi in experiment [1] is -10.5 kcal/mol. Moreover, the ΔΔH in experiment [2] is -3.18 kcal/mol.
In experiment [1], `CNC(=O)[C@H](CC(C)C)NP(=O)([O-])CNC(=O)OCc1ccccc1.[Li+]` [Compound 8c, N-(N-(benzyloxycarbonyl)-aminomethylphosphonyl)-N′-methyl-L-leucinamide lithium] showed a ΔGKi of -8.25 kcal/mol.
The same measure, in the same setting: the value for `CCNC(=O)[C@H](CC(C)C)NP(=O)([O-])CNC(=O)OCc1ccccc1.[Li+]` [Compound 8d, N-(N-(benzyloxycarbonyl)-aminomethylphosphonyl)-N′-ethyl-L-leucinamide lithium] was -8.91 kcal/mol.
